Source: patent US20230277553A1, “THERAPEUTIC COMPOSITION OF CURE-PRO COMPOUNDS FOR TARGETED DEGRADATION OF BET DOMAIN PROTEINS, AND METHODS OF MAKING AND USAGE” (CORNELL UNIVERSITY, priority 2020, published 2023)
“Also recorded” adds a separate entry of the source.

Columns and labels:
BRD4 [1] = target: T1, BRD4 (Homo sapiens, UniProt O60885); assay: Summary of BRD4 degradation by CURE-PRO pairs, estimated from Western Blot or WES (Proteinsimple); type: cell-based; set-up: endogenous in cells; details: for Degradation of BRD4 in combination with CRBN ligand [drawing 407]: Table 4, aryl-boronic acid-containing CRBN ligand, first drawing (by text: 8048); for Degradation of BRD4 in combination with CRBN ligand [drawing 372] / Degradation of BRD4 in combination with CRBN ligand [drawing 371] / Degradation of BRD4 in combination with CRBN ligand [drawing 370]: Table 1; for Degradation of BRD4 in combination with CRBN ligand [drawing 372]: third drawing (8066); for Degradation of BRD4 in combination with VHL ligand [drawing 397]: Table 3, aromatic 1,2-diol-containing VHL ligand, second drawing (8305); for Degradation of BRD4 in combination with CRBN ligand [drawing 371]: second drawing (8047); for Degradation of BRD4 in combination with CRBN ligand [drawing 370]: aromatic 1,2-diol- or hindered cis-1,2-diol-containing CRBN ligand, first drawing (8046)
Description: A black check mark indicates efficacy of 30% to 70% or higher protein degradation.

BRD4 [2] = target: T1, BRD4; assay: CURE-PRO-mediated BRD4 degradation, Western blot, HeLa cells; type: cell-based; set-up: endogenous in cells; host or cells: HeLa; details: 24 h, Western blot; for BRD4 degradation, co-treatment with CRBN ligand 8048: 1:1 with 8048, 1-10 μM each; for BRD4 degradation, co-treatment with CRBN ligand 8049: 1:1 with 8049, 1-10 μM each; for BRD4 degradation, BRD ligand alone: BRD monomer alone; for BRD4 degradation, co-treatment with CRBN ligand 8066: 1:1 with 8066, 10 μM each (BRD-E10: 10 and 100 μM)
Method: All cell lines were purchased from ATCC or DSMZ and grown at 37° C. with 5% CO2. Human HeLa cells were cultured in complete growth medium (Dulbecco's modified Eagle's medium (DMEM) supplemented with 10% FBS); MCF7 cells were cultured in complete growth medium (Dulbecco's modified Eagle's medium (DMEM) supplemented with 10% FBS and 0.01 mg/ml human recombinant insulin (Sigma Aldrich); Namalwa and MOLM-13 cells were cultured in complete growth medium (RPMI 1640 medium supplemented with 10% FBS); MV-4-11 were cultured in complete growth medium (Iscove's Modified Dulbecco's medium, supplemented with 10% FBS); HCT116 cells were cultured in complete growth medium (McCoy's 5a Medium supplemented with 10% FBS). For cellular degradation of BRD4 studies, cells were seeded in a 12-well plate at 70-80% confluency, allowed to attach overnight, and incubated with the indicated compounds for the indicated time. When indicated, a 15-minute pretreatment with 10 μM pomalidomide, 10 μM VHL298, 10 μM Nutlin3a, 1 μM MG-132 or 1 μM Carfilzomib was performed before the addition of CURE-PROs. For washout studies, after CURE-PRO treatment, media was aspirated and incubated with complete medium for the indicated time before lysis.
Anti-BRD4 (13440, 1:1,000 dilution for Western Blot and 1:25 dilution for ProteinSimple); Anti-BRD2 (5848 1:1,000 dilution for Western Blot and 1:25 dilution for ProteinSimple); β-Actin (3700, 1:2,000 dilution for Western Blot), β-Actin (4970, 1:50 dilution for ProteinSimple) anti-mouse IgG-HRP, and anti-rabbit IgG-HRP antibodies were purchased Cell Signaling Technology. Anti-GAPDH (600-401-A33, 1:100 dilution for ProteinSimple) was purchased from Rockland Immunochemicals, Inc. Anti-BRD3 (sc-81202, 1:200 dilution for Western Blot) was purchased from Santa Cruz Biotechnology.
HeLa, MCF7, or HCT116 cells (2.5-3×10^6) were treated for 24 hours with the indicated compounds solubilized in DMSO. The cells were washed in ice-cold PBS and were then lysed in RIPA lysis buffer (150 mM NaCl, 5 mM EDTA, 1% NP-40, 0.5% sodium deoxycholate, 0.1% SDS, 50 mM Tris, pH 8.0.) with Roche protease inhibitor complete cocktail and phosphatase inhibitors (10 mM sodium fluoride, 10 mM sodium pyrophosphate, 1 mM sodium orthovanadate and 20 mM β-glycerophosphate). The total protein concentrations were determined by Bradford Protein Assay and 10-20 μg of protein was loaded onto 4-15% Tris-Glycine gradient gels (Biorad). After standard gel electrophoresis, the separated proteins were transferred to PVDF membrane by wet transfer. The immunoblots were then blocked for 1 hour in 5% skim milk in TBST or 5% BSA in TBST, according to manufacturer's instructions, before an overnight incubation at 4° C. with indicated antibodies and membranes. Membranes were then incubated with the appropriate horseradish peroxidase-conjugated secondary antibodies (1:5,000 dilution) for 1 h at room temperature and the bands were visualized using the Clarity Max Western ECL Substrate (Biorad) and the ChemiDoc Imaging System (Biorad). Signal was detected with ECL Western Blotting Substrate (Pierce) and X-ray film processed with a Konica SRX-101 X-ray film processor or captured by Bio-Rad's Chemidoc Imaging system.
HeLa cells (2.5×106) were treated for 24 hours with the sample compounds solubilized in DMSO. Compounds were added at 1-10 μM each. Standardized protein samples were electrophoresed and imaged as described in the immunoblotting description above. FIGS. 6-18 depicts the CURE-PRO-mediated BRD4 degradation for BRD monomers (JQ1 derivatives comprising of catechol linkers), and CRBN ligands, 8048 and 8049 (pomalidomide derivatives comprising boronic acid linkers) combined in a 1:1 ratio.
HeLa cells (2.5×106) were treated for 24 hours with the compounds solubilized in DMSO. The compounds were added at 10 μM each. Standardized protein samples were electrophoresed and imaged as described in the immunoblotting section above. […]

CCNC(=O)C[C@@H]1N=C(c2ccc(Cl)cc2)c2cc(OCCOCCOCCNC(=O)c3ccc(O)c(O)c3)ccc2-n2c(C)nnc21 [BRD- N40]
Degradation of BRD4 in combination with aryl-boronic acid-containing VHL ligand (BRD4 [1]; Table 6, head shows drawings [drawing 429] and [drawing 430]): ✓ (A black check mark indicates efficacy of 30% to 70% or higher protein degradation)

CCNC(=O)C[C@@H]1N=C(c2ccc(Cl)cc2)c2cc(OCCCCC(=O)Nc3ccc(O)c(O)c3)ccc2-n2c(C)nnc21 [BRD-N22, 5-(((4S)-6-(4-chlorophenyl)-4-(2-(ethylamino)-2-oxoethyl)-1-methyl-4H-benzo[f][1,2,4]triazolo[4,3-a][1,4]diazepin-8-yl)oxy)-N-(3,4-dihydroxyphenyl)pentanamide]
BRD4 degradation, co-treatment with CRBN ligand 8048 (BRD4 [2]): causes degradation of BRD4; also recorded: Degradation is noted
BRD4 degradation, co-treatment with CRBN ligand 8049 (BRD4 [2]): no evidence of BRD4 degradation
BRD4 degradation, BRD ligand alone (BRD4 [2]): no degradation of BRD4
Degradation of BRD4 in combination with CRBN ligand [drawing 407] (BRD4 [1]): ✓ (A black check mark indicates efficacy of 30% to 70% or higher protein degradation)

COc1ccc2c(c1)C(c1ccc(Cl)cc1)=N[C@@H](CC(=O)NCCOCCOCCNC(=O)c1ccc(B(O)O)cc1)c1nnc(C)n1-2 [BRD-E45]
BRD4 degradation, co-treatment with CRBN ligand 8066 (BRD4 [2]): causes degradation of BRD4
Degradation of BRD4 in combination with CRBN ligand [drawing 372] (BRD4 [1]): ✓ (A black check mark indicates efficacy of 30% to 70% or higher protein degradation)
Degradation of BRD4 in combination with VHL ligand [drawing 397] (BRD4 [1]): ✓ (A black check mark indicates efficacy of 30% to 70% or higher protein degradation)

COc1ccc2c(c1)C(c1ccc(Cl)cc1)=N[C@@H](CC(=O)NCCNC(=O)/C=C/c1cccc(B(O)O)c1)c1nnc(C)n1-2 [BRD-E30, (3-((E)-3-((2-(2-((4S)-6-(4-chlorophenyl)-8-methoxy-1-methyl-4H-benzo[f][1,2,4]triazolo[4,3-a][1,4]diazepin-4-yl)acetamido)ethyl)amino)-3-oxoprop-1-en-1-yl)phenyl)boronic acid]
BRD4 degradation, BRD ligand alone (BRD4 [2]): no change in expression
Degradation of BRD4 in combination with CRBN ligand [drawing 371] (BRD4 [1]): ✓ (A black check mark indicates efficacy of 30% to 70% or higher protein degradation)
Degradation of BRD4 in combination with CRBN ligand [drawing 372] (BRD4 [1]): ✓ (A black check mark indicates efficacy of 30% to 70% or higher protein degradation)

COc1ccc2c(c1)C(c1ccc(Cl)cc1)=N[C@@H](CC(=O)NCCCCNC(=O)c1ccc(O)c(O)c1)c1nnc(C)n1-2 [BRD-N5]
BRD4 degradation, co-treatment with CRBN ligand 8048 (BRD4 [2]): causes degradation of BRD4; also recorded: Degradation is noted
BRD4 degradation, co-treatment with CRBN ligand 8049 (BRD4 [2]): no evidence of BRD4 degradation
BRD4 degradation, BRD ligand alone (BRD4 [2]): no degradation of BRD4
Degradation of BRD4 in combination with CRBN ligand [drawing 407] (BRD4 [1]): ✓ (A black check mark indicates efficacy of 30% to 70% or higher protein degradation)

COc1ccc2c(c1)C(c1ccc(Cl)cc1)=N[C@@H](CC(=O)NCCCCNC(=O)c1cccc(O)c1O)c1nnc(C)n1-2 [BRD-N6]
BRD4 degradation, co-treatment with CRBN ligand 8048 (BRD4 [2]): causes degradation of BRD4; also recorded: Degradation is noted
BRD4 degradation, co-treatment with CRBN ligand 8049 (BRD4 [2]): no evidence of BRD4 degradation
BRD4 degradation, BRD ligand alone (BRD4 [2]): no degradation of BRD4
Degradation of BRD4 in combination with CRBN ligand [drawing 407] (BRD4 [1]): ✓ (A black check mark indicates efficacy of 30% to 70% or higher protein degradation)

CCNC(=O)C[C@@H]1N=C(c2ccc(Cl)cc2)c2cc(OCCOCCOCCOCCOCCOCCNC(=O)c3cccc(O)c3O)ccc2-n2c(C)nnc21 [BRD-N71, N-(17-(((4S)-6-(4-chlorophenyl)-4-(2-(ethylamino)-2-oxoethyl)-1-methyl-4H-benzo[f][1,2,4]triazolo[4,3-a][1,4]diazepin-8-yl)oxy)-3,6,9,12,15-pentaoxaheptadecyl)-2,3-dihydroxybenzamide]
BRD4 degradation, co-treatment with CRBN ligand 8048 (BRD4 [2]): causes degradation of BRD4; also recorded: Some selectivity for BRD-N71 and 8048 is noted
BRD4 degradation, co-treatment with CRBN ligand 8049 (BRD4 [2]): no evidence of BRD4 degradation
BRD4 degradation, BRD ligand alone (BRD4 [2]): no degradation of BRD4
Degradation of BRD4 in combination with CRBN ligand [drawing 407] (BRD4 [1]): ✓ (A black check mark indicates efficacy of 30% to 70% or higher protein degradation)
Degradation of BRD4 in combination with MDM2 ligand [drawing 424] (BRD4 [1]; Table 5, aryl-boronic acid-containing MDM2 ligand, second drawing (8312)): ✓ (A black check mark indicates efficacy of 30% to 70% or higher protein degradation)

COc1ccc2c(c1)C(c1ccc(Cl)cc1)=N[C@@H](CC(=O)NCCCNC(=O)c1cccc(B(O)O)c1)c1nnc(C)n1-2 [BRD-E4]
BRD4 degradation, co-treatment with CRBN ligand 8046 (BRD4 [2]; 1:1 with 8046, 10 μM each): causes degradation of BRD4; also recorded: Degradation is noted
BRD4 degradation, co-treatment with CRBN ligand 8047 (BRD4 [2]; 1:1 with 8047, 10 μM each): causes degradation of BRD4; also recorded: Degradation is noted
BRD4 degradation, co-treatment with CRBN ligand 8066 (BRD4 [2]): causes degradation of BRD4; also recorded: Degradation is noted
Degradation of BRD4 in combination with CRBN ligand [drawing 371] (BRD4 [1]): ✓ (A black check mark indicates efficacy of 30% to 70% or higher protein degradation)
Degradation of BRD4 in combination with CRBN ligand [drawing 372] (BRD4 [1]): ✓ (A black check mark indicates efficacy of 30% to 70% or higher protein degradation)
Degradation of BRD4 in combination with CRBN ligand [drawing 370] (BRD4 [1]): ✓ (A black check mark indicates efficacy of 30% to 70% or higher protein degradation)

COc1ccc2c(c1)C(c1ccc(Cl)cc1)=N[C@@H](CC(=O)Nc1ccc(O)c(O)c1)c1nnc(C)n1-2 [BRD-N68]
Degradation of BRD4 in combination with CRBN ligand [drawing 407] (BRD4 [1]): ✓ (A black check mark indicates efficacy of 30% to 70% or higher protein degradation)

COc1ccc2c(c1)C(c1ccc(Cl)cc1)=N[C@@H](CC(=O)NCCNC(=O)c1cccc(B(O)O)c1)c1nnc(C)n1-2 [BRD-E2]
Degradation of BRD4 in combination with VHL ligand [drawing 397] (BRD4 [1]): ✓ (A black check mark indicates efficacy of 30% to 70% or higher protein degradation)

COc1ccc2c(c1)C(c1ccc(Cl)cc1)=N[C@@H](CC(=O)NCCCCCNC(=O)c1ccc(B(O)O)cc1)c1nnc(C)n1-2 [BRD- E07]
Degradation of BRD4 in combination with CRBN ligand [drawing 372] (BRD4 [1]): ✓ (A black check mark indicates efficacy of 30% to 70% or higher protein degradation)

COc1ccc2c(c1)C(c1ccc(Cl)cc1)=N[C@@H](CC(=O)NCc1ccc(B(O)O)cc1)c1nnc(C)n1-2 [BRD-E09, (4-((2-((4S)-6-(4-chlorophenyl)-8-methoxy-1-methyl-4H-benzo[f][1,2,4]triazolo[4,3-a][1,4]diazepin-4-yl)acetamido)methyl)phenyl)boronic acid]
Degradation of BRD4 in combination with VHL ligand [drawing 397] (BRD4 [1]): ✓ (A black check mark indicates efficacy of 30% to 70% or higher protein degradation)

CCNC(=O)C[C@@H]1N=C(c2ccc(Cl)cc2)c2cc(OCCOCCNC(=O)c3ccc(B(O)O)cc3)ccc2-n2c(C)nnc21 [BRD- E39]
Degradation of BRD4 in combination with CRBN ligand [drawing 370] (BRD4 [1]): ✓ (A black check mark indicates efficacy of 30% to 70% or higher protein degradation)

COc1ccc2c(c1)C(c1ccc(Cl)cc1)=N[C@@H](CC(=O)NCCNC(=O)Cc1cccc(B(O)O)c1)c1nnc(C)n1-2 [BRD- E38]
Degradation of BRD4 in combination with CRBN ligand [drawing 371] (BRD4 [1]): ✓ (A black check mark indicates efficacy of 30% to 70% or higher protein degradation)

CCNC(=O)C[C@@H]1N=C(c2ccc(SCc3ccc(B(O)O)cc3)cc2)c2cc(OC)ccc2-n2c(C)nnc21 [BRD-E54]
Degradation of BRD4 in combination with VHL ligand [drawing 397] (BRD4 [1]): ✓ (A black check mark indicates efficacy of 30% to 70% or higher protein degradation)
